# Results from US20140212382A1, “PURINE MONOPHOSPHATE PRODRUGS FOR TREATMENT OF VIRAL INFECTIONS” (EMORY UNIVERSITY, priority 2011, published 2014).
# Read-outs that look alike come from different tables or passages of the source.
# What was measured:
# [1] = tested on: MtDNA, HepG2 Hepatoma cells; test: Mitochondrial toxicity in HepG2 cells: mitochondrial DNA content; assay type: cell-based
# Text: A real-time PCR assay to accurately quantify mitochondrial DNA content has been developed (see Stuyver L J, Lostia S, Adams M, Mathew J S, Pai B S, Grier J, Tharnish P M, Choi Y, Chong Y, Choo H, Chu C K, Otto M J, Schinazi R F. Antiviral activities and cellular toxicities of modified 2′,3′-dideoxy-2′,3′-didehydrocytidine analogs. Antimicrob. Agents Chemother. 2002; 46: 3854-60). This assay was used in all studies described in this application that determine the effect of nucleoside analogs on mitochondrial DNA content. In this assay, low-passage-number HepG2 cells were seeded at 5,000 cells/well in collagen-coated 96-well plates. Nucleoside monophosphate analogs were added to the medium to obtain final concentrations of 0 μM, 0.1 μM, 10 μM and 100 μM. On culture day 7, cellular nucleic acids were prepared by using commercially available columns (RNeasy 96 kit; Qiagen). […] The mitochondrial cytochrome c oxidase subunit II (COXII) gene and the β-actin or rRNA gene were amplified from 5 μl of the eluted nucleic acids using a multiplex Q-PCR protocol with suitable primers and probes for both target and reference amplifications. For COXII the following sense, probe and antisense primers are used, respectively: 5′-[…]-3′,5′-tetrachloro-6-carboxyfluorescein-[…]-TAMRA-3′ and 5′-[…]-3′. For exon 3 of the β-actin gene (GenBank accession number E01094) the sense, probe, and antisense primers are 5′-[…]-3′,5′-6-[…]-3′ and 5′-[…]-3′, respectively. The primers and probes for the rRNA gene are commercially available from Applied Biosystems. Since equal amplification efficiencies were obtained for all genes, the comparative CT method was used to investigate potential inhibition of mitochondrial DNA synthesis. The comparative CT method uses arithmetic formulas in which the amount of target (COXII gene) is normalized to the amount of an endogenous reference (the β-actin or rRNA gene) and is relative to a calibrator (a control with no drug at day 7). The arithmetic formula for this approach is given by 2-ΔΔCT, where ΔΔCT is (CT for average target test sample−CT for target control)−(CT for average reference test−CT for reference control) (see Johnson M R, K Wang, J B Smith, M J Heslin, R B Diasio. Quantitation of dihydropyrimidine dehydrogenase expression by real-time reverse transcription polymerase chain reaction. Anal. Biochem. 2000; 278:175-184). A decrease in mitochondrial DNA content in cells grown in the presence of drug would indicate mitochondrial toxicity.
# (§1) The effect of compounds 8b-up, 12, and 8a on nuclear or mitochondrial DNA, or lactic acid production, in HepG2 Hepatoma cells was analyzed over a 14 day period. The procedure outlined in section (i) above was used for this analysis.
# Huh7 cells = test: Cellular pharmacology in Huh7 cells (LC/MS of nucleotides formed); assay type: in vitro ADME; details: 50 μM, 4 hr
# Description: Similar to the method outlined for HepG2 cellular pharmacology, compounds are incubated in Huh-7 cells for 4 hr at the concentration of 50 μM in triplicate. […] Ice-cold 70% methanol can be used as the extraction solvent. ddATP (10 nM) can be used as the internal standard.
# PBM cells = test: Cellular pharmacology in PBM cells (LC-MS/MS of intracellular metabolites); assay type: in vitro ADME; details: 50 μM, 4 h, 37° C.
# Description: Test compounds are incubated in PBM cells at 50 μM for 4 h at 37° C. Then the drug containing media is removed and the PBM cells are washed twice with PBS to remove extracellular drugs. The intracellular drugs are extracted from 10×10^6 PBM cells using 1 mL 70% ice-cold methanol (containing 10 nM of the internal standard ddATP). Following precipitation, the samples are maintained at room temperature for 15 min followed by vortexing for 30 sec, and then stored 12 h at −20° C. The supernatant is then evaporated to dryness. Dry samples would be stored at −20° C. until LC-MS/MS analysis. Prior to analysis, each sample is reconstituted in 100 μL mobile phase A, and centrifuged at 20,000 g to remove insoluble particulates.
# Gradient separation is performed on a Hypersil GOLD column (100×1.0 mm, 3 μm particle size; Thermo Scientific, Waltham, Mass., USA). Mobile phase A consists of 2 mM ammonium phosphate and 3 mM hexylamine. Acetonitrile is increased from 10 to 80% in 15 min, and kept at 80% for 3 min. Equilibration at 10% acetonitrile lasts 15 min. The total run time is 33 min. The flow rate is maintained at 50 μL/min and a 10 μL injection is used. The autosampler and the column compartment are typically maintained at 4.5 and 30° C., respectively.
# The first 3.5 min of the analysis is diverted to waste. The mass spectrometer is operated in positive ionization mode with a spray voltage of 3.2 kV.
# [2] = tested on: nuclear DNA, HepG2 Hepatoma cells; test: Mitochondrial toxicity in HepG2 cells: nuclear DNA content; assay type: cell-based
# Description: This assay was used in all studies described in this application that determine the effect of nucleoside analogs on mitochondrial DNA content. In this assay, low-passage-number HepG2 cells were seeded at 5,000 cells/well in collagen-coated 96-well plates. […] On culture day 7, cellular nucleic acids were prepared by using commercially available columns (RNeasy 96 kit; Qiagen). […] The mitochondrial cytochrome c oxidase subunit II (COXII) gene and the β-actin or rRNA gene were amplified from 5 μl of the eluted nucleic acids using a multiplex Q-PCR protocol with suitable primers and probes for both target and reference amplifications. […] For exon 3 of the β-actin gene (GenBank accession number E01094) the sense, probe, and antisense primers are 5′-[…]-3′,5′-6-[…]-3′ and 5′-[…]-3′, respectively. The primers and probes for the rRNA gene are commercially available from Applied Biosystems. […] The comparative CT method uses arithmetic formulas in which the amount of target (COXII gene) is normalized to the amount of an endogenous reference (the β-actin or rRNA gene) and is relative to a calibrator (a control with no drug at day 7). The arithmetic formula for this approach is given by 2-ΔΔCT, where ΔΔCT is (CT for average target test sample−CT for target control)−(CT for average reference test−CT for reference control) (see Johnson M R, K Wang, J B Smith, M J Heslin, R B Diasio. Quantitation of dihydropyrimidine dehydrogenase expression by real-time reverse transcription polymerase chain reaction. Anal. Biochem. 2000; 278:175-184). A decrease in mitochondrial DNA content in cells grown in the presence of drug would indicate mitochondrial toxicity.
# as §1
# [3] = tested on: HCV Replicon RNA in Huh 7 Clone B cells; test: HCV replicon assay; assay type: cell-based; details: Hepatitis C virus
# Description: (§2) Huh 7 Clone B cells containing HCV Replicon RNA were seeded in a 96-well plate at 5000 cells/well, and the compounds tested at 10 μM in triplicate immediately after seeding. Following five days incubation (37° C., 5% CO2), total cellular RNA was isolated using the versaGene RNA purification kit from Gentra. Replicon RNA and an internal control (TaqMan rRNA control reagents, Applied Biosystems) were amplified in a single step multiplex Real Time RT-PCR Assay. The antiviral effectiveness of the compounds was calculated by subtracting the threshold RT-PCR cycle of the test compound from the threshold RT-PCR cycle of the no-drug control (ΔCt HCV). A ΔCt of 3.3 equals a 1-log reduction (equal to 90% less starting material) in Replicon RNA levels. The cytotoxicity of the compounds was also calculated using the ΔCt rRNA values. (2′-C-Me-C) was used as the control. To determine EC90 and IC50 values^2, ΔCt: values were first converted into a fraction of the starting material,^3 and then were used to calculate the % inhibition. The data on three compounds (Compound 12, Compound 8a, and compound 8b-up) is shown below in Table 3.
# [4] = Cytotoxicity in HCV replicon assay (ΔCt rRNA); assay type: cell-based; details: human, HCV Replicon (Huh7)
# Description: as §2
# [5] = 1 μM, HepG2 Hepatoma cells, 14 day assay
# [6] = 10 μM, HepG2 Hepatoma cells, 14 day assay
# [7] = 50 μM, HepG2 Hepatoma cells, 14 day assay
# [8] = Huh-7, 120 h, HCV Replicon (Huh7), five days incubation, read-out: EC50
# [9] = Huh 7 Clone B cells containing HCV replicon RNA
structure (smiles),measurement,setting,value
"CCOC(=O)[C@H](C)NP(=O)(OCC1O[C@@H](n2cnc3c(N)nc(N)nc32)C(C)(O)C1O)Oc1ccccc1 (stereo in doubt) [Compound 8a, (2S)-ethyl 2-((((2S,3R,4R,5R)-5-(2,6-diamino-9H-purin-9-yl)-3,4-dihydroxy-4-methyltetrahydrofuran-2-yl)methoxy)(phenoxy)phosphorylamino)propanoate]",effect on nuclear or mitochondrial DNA or lactic acid production,"[1]; up to 50 μM, HepG2 Hepatoma cells, 14 day assay, summary also covers nuclear DNA and lactic acid",no significant effect
same,intracellular guanine analog triphosphate,Huh7 cells,also detected
same,"intracellular level of 2,6-diamino-2′-C-Me purine triphosphate",Huh7 cells,unexpectedly high levels
CCOC(=O)[C@H](C)NP(=O)(OC[C@@H]1OC[C@H](n2cnc3c(N)nc(N)nc32)O1)Oc1ccccc1 (stereo partly drawn) [RS-864],intracellular level of DAPD,PBM cells,low levels
same,intracellular level of DAPD-TP / phosphorylated forms of DAPD,PBM cells,very high levels
same,intracellular level of DXG-TP,PBM cells,low levels
same,ratio of DXG-TP (6-OH) to DAPD-TP (6-NH2),PBM cells; LC/MS/MS,2 to 98
"CC1(O)C(O)[C@@H](CO)O[C@H]1n1cnc2c(N)nc(N)nc21 (stereo partly drawn) [Compound 12, 2,6-diamino-2′-C-Me purine nucleoside]",intracellular guanine analog triphosphate,Huh7 cells,major triphosphate detected
same,"intracellular level of 2,6-diamino-2′-C-Me purine triphosphate",Huh7 cells,extremely low levels
CCOC(=O)[C@H](C)NP(=O)(OC[C@H]1O[C@@H](n2cnc3c(N)nc(N)nc32)C(C)(O)C1O)Oc1ccccc1 (stereo partly drawn) [drawing 51],% Inhibition MtDNA,[1]; [5],< 1%
same,% Inhibition MtDNA,[1]; [6],5.4%
same,% Inhibition MtDNA,[1]; [7],< 1%
same,% Inhibition nuclear DNA,[2]; [5],4.0%
same,% Inhibition nuclear DNA,[2]; [6],20%
same,% Inhibition nuclear DNA,[2]; [7],< 1%
CC(C)OC(=O)CCNC(=O)[C@@H]1OP(=O)(OC[C@H]2O[C@@H](n3cnc4c(N)nc(N)nc43)C(C)(O)C2O)OCC1(C)C (stereo partly drawn),EC50,[3]; [8],> 10 µM
same,EC50,"[3]; Huh-7, HCV Replicon (Huh7), second line printed as EC50 in the entry, read-out: EC50",> 10 µM
same,CC50 at 5 day,[4]; [9],> 10 µM
CC1(O)C(O)[C@@H](CO)O[C@H]1n1cnc2c(N)nc(N)nc21 (stereo partly drawn) [drawing 50],% Inhibition MtDNA,"[1]; human, 14 day, 1 μM",< 1%
same,% Inhibition MtDNA,"[1]; human, 14 day, 10 μM",< 1%
same,% Inhibition MtDNA,"[1]; human, 14 day, 50 μM",< 1%
same,% Inhibition nuclear DNA,"[2]; human, 14 day, 1 μM",22%
same,% Inhibition nuclear DNA,"[2]; human, 14 day, 10 μM",46%
same,% Inhibition nuclear DNA,"[2]; human, 14 day, 50 μM",21%
Nc1nc(N)c2ncn([C@H]3CO[C@@H](CO)O3)c2n1 [DAPD],intracellular level of DAPD,PBM cells,Low levels
same,intracellular level of DAPD-TP / phosphorylated forms of DAPD,PBM cells,no phosphorylated forms of DAPD were detected
same,intracellular level of DXG-TP,PBM cells,high levels
CCOC(=O)[C@H](C)NP(=O)(OC[C@H]1O[C@@H](n2cnc3c(N)nc(N)nc32)C(C)(O)C1O)Oc1ccccc1 (stereo partly drawn) [drawing 56],EC50,"[3]; Huh-7, 120 h",1.3 µM
same,EC90,"[3]; Huh-7, 120 h",4.9 µM
same,CC50 at 5 day,[4],> 10 µM
CCOC(=O)CCc1ccccc1O[P@@](=O)(N[C@@H](C)C(=O)OCC)OC[C@H]1O[C@@H](n2cnc3c(N)nc(N)nc32)C(C)(O)C1O (stereo partly drawn),EC50,"[3]; Huh-7, 120 h",0.2 µM
same,EC90,"[3]; Huh-7, 120 h",0.7 µM
same,CC50 at 5 day,[4],> 10 µM
CCOC(=O)CCc1ccccc1OP(=O)(N[C@H](C)C(=O)OCC)OC[C@H]1O[C@@H](n2cnc3c(N)nc(N)nc32)C(C)(O)C1O (stereo partly drawn) [drawing 49],% Inhibition MtDNA,[1]; [5],24%
same,% Inhibition MtDNA,[1]; [6],34%
same,% Inhibition MtDNA,[1]; [7],43%
same,% Inhibition nuclear DNA,[2]; [5],30%
same,% Inhibition nuclear DNA,[2]; [6],16%
same,% Inhibition nuclear DNA,[2]; [7],10%
CCOC(=O)CCc1ccccc1OP(=O)(N[C@@H](C)C(=O)OCC)OC[C@H]1O[C@@H](n2cnc3c(N)nc(N)nc32)C(C)(F)C1O (stereo partly drawn),EC50,"[3]; Huh-7, 120 h",0.7 µM
same,EC90,"[3]; Huh-7, 120 h",2.9 µM
same,CC50 at 5 day,[4],> 10 µM
CCOC(=O)CCc1ccccc1O[P@](=O)(N[C@@H](C)C(=O)OCC)OC[C@H]1O[C@@H](n2cnc3c(N)nc(N)nc32)C(C)(O)C1O (stereo partly drawn),EC50,"[3]; Huh-7, 120 h",2.3 µM
same,EC90,"[3]; Huh-7, 120 h",7.7 µM
same,CC50 at 5 day,[4],> 3 µM
CC1(O)C(O)[C@@H](CO)O[C@H]1n1cnc2c(N)nc(N)nc21 (stereo partly drawn) [drawing 55],EC50,[3]; [8],3.7 µM
same,EC90,"[3]; Huh-7, 120 h, HCV Replicon (Huh7), five days incubation, read-out: EC90",11 µM
same,CC50 at 5 day,[4]; [9],> 10 µM
